Experimental data published in ChEMBL document CHEMBL4138123, “Design, synthesis and biological evaluation of novel pyrazolochalcones as potential modulators of PI3K/Akt/mTOR pathway and inducers of apoptosis in breast cancer cells” (Eur J Med Chem, 2017).

Tests used:
Assay type in all cases: functional
CCRF-CEM = assay: Cytotoxicity against human CCRF-CEM cells assessed as growth inhibition after 48 hrs by sulforhodamine B assay
K562 = assay: Cytotoxicity against human K562 cells assessed as growth inhibition after 48 hrs by sulforhodamine B assay; conditions: K562, 48 h
IGROV-1 [1] = assay: Cytotoxicity against human IGROV1 cells assessed as growth inhibition after 48 hrs by sulforhodamine B assay; conditions: IGROV-1, 48 h
OVCAR-3 [2] = assay: Cytotoxicity against human OVCAR3 cells assessed as growth inhibition after 48 hrs by sulforhodamine B assay; conditions: OVCAR-3, 48 h
OVCAR-4 [3] = assay: Cytotoxicity against human OVCAR4 cells assessed as growth inhibition after 48 hrs by sulforhodamine B assay; conditions: OVCAR-4, 48 h
Hs-578T [4] = assay: Cytotoxicity against human Hs 578T cells assessed as growth inhibition after 48 hrs by sulforhodamine B assay
SK-OV-3 [5] = assay: Cytotoxicity against human SKOV3 cells assessed as cell growth at 0.01 uM after 48 hrs by sulforhodamine B assay relative to control; conditions: SK-OV-3, 48 h, read-out: Activity
OVCAR-8 [6] = assay: Cytotoxicity against human OVCAR8 cells assessed as cell growth at 0.01 uM after 48 hrs by sulforhodamine B assay relative to control; conditions: OVCAR-8, 48 h, read-out: Activity
SR = assay: Cytotoxicity against human SR cells assessed as cell growth at 0.01 uM after 48 hrs by sulforhodamine B assay relative to control; conditions: read-out: Activity
Hs-578T [7] = assay: Cytotoxicity against human Hs 578T cells assessed as cell growth at 0.01 uM after 48 hrs by sulforhodamine B assay relative to control; conditions: read-out: Activity
COLO 205 = assay: Cytotoxicity against human COLO205 cells assessed as cell growth at 0.1 uM after 48 hrs by sulforhodamine B assay relative to control; conditions: COLO 205, 48 h, read-out: Activity
SNB-19 = assay: Cytotoxicity against human SNB19 cells assessed as cell growth at 0.1 uM after 48 hrs by sulforhodamine B assay relative to control; conditions: SNB-19, 48 h, read-out: Activity
MDA-MB-435 [8] = assay: Cytotoxicity against human MDA-MB-435 cells assessed as cell growth at 0.1 uM after 48 hrs by sulforhodamine B assay relative to control; conditions: MDA-MB-435, 48 h, read-out: Activity
IGROV-1 [9] = assay: Cytotoxicity against human IGROV1 cells assessed as cell growth at 0.1 uM after 48 hrs by sulforhodamine B assay relative to control; conditions: IGROV-1, 48 h, read-out: Activity
OVCAR-4 [10] = assay: Cytotoxicity against human OVCAR4 cells assessed as cell growth at 0.1 uM after 48 hrs by sulforhodamine B assay relative to control; conditions: OVCAR-4, 48 h, read-out: Activity
MDA-MB-231 = assay: Cytotoxicity against human MDA-MB-231 cells assessed as cell growth at 0.1 uM after 48 hrs by sulforhodamine B assay relative to control; conditions: MDA-MB-231, 48 h, read-out: Activity
UACC-62 [11] = assay: Cytotoxicity against human UACC62 cells assessed as cell growth at 1 uM after 48 hrs by sulforhodamine B assay relative to control; conditions: UACC-62, 48 h, read-out: Activity
OVCAR-4 [12] = assay: Cytotoxicity against human OVCAR4 cells assessed as cell growth at 1 uM after 48 hrs by sulforhodamine B assay relative to control; conditions: OVCAR-4, 48 h, read-out: Activity
TK-10 = assay: Cytotoxicity against human TK10 cells assessed as cell growth at 1 uM after 48 hrs by sulforhodamine B assay relative to control; conditions: TK-10, 48 h, read-out: Activity
UO-31 = assay: Cytotoxicity against human UO31 cells assessed as cell growth at 1 uM after 48 hrs by sulforhodamine B assay relative to control; conditions: UO-31, 48 h, read-out: Activity
NCI-H23 = assay: Cytotoxicity against human NCI-H23 cells assessed as cell growth at 10 uM after 48 hrs by sulforhodamine B assay relative to control; conditions: NCI-H23, 48 h, read-out: Activity
NCI-H460 = assay: Cytotoxicity against human NCI-H460 cells assessed as cell growth at 10 uM after 48 hrs by sulforhodamine B assay relative to control; conditions: NCI-H460, 48 h, read-out: Activity
HT-29 = assay: Cytotoxicity against human HT-29 cells assessed as cell growth at 10 uM after 48 hrs by sulforhodamine B assay relative to control; conditions: HT-29, 48 h, read-out: Activity
SW-620 = assay: Cytotoxicity against human SW620 cells assessed as cell growth at 10 uM after 48 hrs by sulforhodamine B assay relative to control; conditions: SW-620, 48 h, read-out: Activity
M14 = assay: Cytotoxicity against human M14 cells assessed as cell growth at 10 uM after 48 hrs by sulforhodamine B assay relative to control; conditions: M14, 48 h, read-out: Activity
MDA-MB-435 [13] = assay: Cytotoxicity against human MDA-MB-435 cells assessed as cell growth at 10 uM after 48 hrs by sulforhodamine B assay relative to control; conditions: MDA-MB-435, 48 h, read-out: Activity
UACC-62 [14] = assay: Cytotoxicity against human UACC62 cells assessed as cell growth at 10 uM after 48 hrs by sulforhodamine B assay relative to control; conditions: UACC-62, 48 h, read-out: Activity
OVCAR-8 [15] = assay: Cytotoxicity against human OVCAR8 cells assessed as cell growth at 10 uM after 48 hrs by sulforhodamine B assay relative to control; conditions: OVCAR-8, 48 h, read-out: Activity
NCI/ADR-RES = assay: Cytotoxicity against human NCI/ADR-RES cells assessed as cell growth at 10 uM after 48 hrs by sulforhodamine B assay relative to control; conditions: read-out: Activity
SN12C = assay: Cytotoxicity against human SN12C cells assessed as cell growth at 10 uM after 48 hrs by sulforhodamine B assay relative to control; conditions: read-out: Activity
HCC 2998 = assay: Cytotoxicity against human HCC2998 cells assessed as cell growth at 100 uM after 48 hrs by sulforhodamine B assay relative to control; conditions: HCC 2998, 48 h, read-out: Activity
OVCAR-3 [16] = assay: Cytotoxicity against human OVCAR3 cells assessed as cell growth at 100 uM after 48 hrs by sulforhodamine B assay relative to control; conditions: OVCAR-3, 48 h, read-out: Activity
SK-OV-3 [17] = assay: Cytotoxicity against human SKOV3 cells assessed as cell growth at 100 uM after 48 hrs by sulforhodamine B assay relative to control; conditions: SK-OV-3, 48 h, read-out: Activity
RXF 393 = assay: Cytotoxicity against human RXF393 cells assessed as cell growth at 100 uM after 48 hrs by sulforhodamine B assay relative to control; conditions: RXF 393, 48 h, read-out: Activity
BT-549 = assay: Cytotoxicity against human BT549 cells assessed as cell growth at 100 uM after 48 hrs by sulforhodamine B assay relative to control; conditions: BT-549, 48 h, read-out: Activity
T47D = assay: Cytotoxicity against human T47D cells assessed as cell growth at 100 uM after 48 hrs by sulforhodamine B assay relative to control; conditions: read-out: Activity

SMILES: COc1ccc(-c2cc(/C=C/C(=O)c3ccc(OC)c(OC)c3)[nH]n2)cc1
- GI50 (CCRF-CEM): 1.34 µM
- LC50 (concentration killing 50% of cells) (CCRF-CEM): > 100 µM
- TGI (CCRF-CEM): 4.14 µM
- GI50 (K562): 1.28 µM
- LC50 (concentration killing 50% of cells) (K562): > 100 µM
- TGI (K562): 10.7 µM
- GI50 (IGROV-1 [1]): 1.57 µM
- LC50 (IGROV-1 [1]): 8.49 µM
- TGI (IGROV-1 [1]): 3.65 µM
- GI50 (OVCAR-3 [2]): 1.19 µM
- LC50 (OVCAR-3 [2]): 5.15 µM
- TGI (OVCAR-3 [2]): 2.47 µM
- GI50 (OVCAR-4 [3]): 0.59 µM
- LC50 (OVCAR-4 [3]): 28.4 µM
- TGI (OVCAR-4 [3]): 3.87 µM
- GI50 (Hs-578T [4]): 3.38 µM
- LC50 (Hs-578T [4]): > 100 µM
- TGI (Hs-578T [4]): 29 µM
- growth at 0.01 µM (SK-OV-3 [5]): 109%
- growth at 0.01 µM (OVCAR-8 [6]): 93%
- growth at 0.01 µM (SR): 100%
- growth at 0.01 µM (Hs-578T [7]): 96%
- growth at 0.1 µM (COLO 205): 104%
- growth at 0.1 µM (SNB-19): 90%
- growth at 0.1 µM (MDA-MB-435 [8]): 95%
- growth at 0.1 µM (IGROV-1 [9]): 91%
- growth at 0.1 µM (OVCAR-4 [10]): 77%
- growth at 0.1 µM (MDA-MB-231): 91%
- growth at 1 µM (UACC-62 [11]): 85%
- growth at 1 µM (OVCAR-4 [12]): 39%
- growth at 1 µM (TK-10): 103%
- growth at 1 µM (UO-31): 61%
- growth at 10 µM (NCI-H23): -24%
- growth at 10 µM (NCI-H460): -43%
- growth at 10 µM (HT-29): -66%
- growth at 10 µM (SW-620): -52%
- growth at 10 µM (M14): -42%
- growth at 10 µM (MDA-MB-435 [13]): -64%
- growth at 10 µM (UACC-62 [14]): -77%
- growth at 10 µM (OVCAR-8 [15]): 1%
- growth at 10 µM (NCI/ADR-RES): 15%
- growth at 10 µM (SN12C): -58%
- growth at 100 µM (HCC 2998): -95%
- growth at 100 µM (OVCAR-3 [16]): -96%
- growth at 100 µM (SK-OV-3 [17]): -95%
- growth at 100 µM (RXF 393): -92%
- growth at 100 µM (BT-549): -99%
- growth at 100 µM (T47D): -83%

SMILES: COc1ccc(-c2cc(/C=C/C(=O)c3ccc(N)cc3)[nH]n2)cc1
- GI50 (CCRF-CEM): 1.32 µM
- LC50 (concentration killing 50% of cells) (CCRF-CEM): 36.1 µM
- TGI (CCRF-CEM): 4.91 µM
- GI50 (K562): 1.42 µM
- LC50 (concentration killing 50% of cells) (K562): 69.7 µM
- TGI (K562): 11.6 µM
- GI50 (IGROV-1 [1]): 2.27 µM
- LC50 (IGROV-1 [1]): 43.3 µM
- TGI (IGROV-1 [1]): 6.45 µM
- GI50 (OVCAR-3 [2]): 1.25 µM
- LC50 (OVCAR-3 [2]): 7.09 µM
- TGI (OVCAR-3 [2]): 2.97 µM
- GI50 (OVCAR-4 [3]): 1.08 µM
- LC50 (OVCAR-4 [3]): 51.2 µM
- TGI (OVCAR-4 [3]): 8.01 µM
- GI50 (Hs-578T [4]): 4.04 µM
- LC50 (Hs-578T [4]): > 100 µM
- TGI (Hs-578T [4]): 24.4 µM
- growth at 0.01 µM (SK-OV-3 [5]): 101%
- growth at 0.01 µM (OVCAR-8 [6]): 96%
- growth at 0.01 µM (SR): 94%
- growth at 0.01 µM (Hs-578T [7]): 98%
- growth at 0.1 µM (COLO 205): 96%
- growth at 0.1 µM (SNB-19): 89%
- growth at 0.1 µM (MDA-MB-435 [8]): 103%
- growth at 0.1 µM (IGROV-1 [9]): 91%
- growth at 0.1 µM (OVCAR-4 [10]): 105%
- growth at 0.1 µM (MDA-MB-231): 89%
- growth at 1 µM (UACC-62 [11]): 79%
- growth at 1 µM (OVCAR-4 [12]): 52%
- growth at 1 µM (TK-10): 81%
- growth at 1 µM (UO-31): 61%
- growth at 10 µM (NCI-H23): 8%
- growth at 10 µM (NCI-H460): -40%
- growth at 10 µM (HT-29): -10%
- growth at 10 µM (SW-620): -26%
- growth at 10 µM (M14): -24%
- growth at 10 µM (MDA-MB-435 [13]): -16%
- growth at 10 µM (UACC-62 [14]): -89%
- growth at 10 µM (OVCAR-8 [15]): 9%
- growth at 10 µM (NCI/ADR-RES): 9%
- growth at 10 µM (SN12C): -16%
- growth at 100 µM (HCC 2998): -93%
- growth at 100 µM (OVCAR-3 [16]): -85%
- growth at 100 µM (SK-OV-3 [17]): -68%
- growth at 100 µM (RXF 393): -63%
- growth at 100 µM (BT-549): -61%
- growth at 100 µM (T47D): -54%
